Values of other authors in patent publication US20240361407A1, “SYSTEMS AND METHODS FOR GENERATION OF HYPERPOLARIZED MATERIALS” (priority 2021, published 2024).
Converted amounts (≈) assume the structure as drawn.

Conditions: aqueous solution

Q: Which solubility does the source give for `O=C(O)/C=C/C(=O)O` [fumaric acid] here?
A: Its solubility is 60 mM (≈ 6960 µg/mL).
